Test results from patent US7884116B2, “Octahydronaphthalene derivative and medicine” (Nippon Shinyaku Co., Ltd., priority 2003, dated 2011).
Marks after values point to notes of the source that are not given here.

Columns and labels:
[1] = tested on: ICAM-1 expressed on HUVEC; assay: Test about suppression of ICAM-1 expression (enzyme immuno assay, EIA), TNF-α-stimulated HUVEC; type: cell-based; conditions: Homo sapiens, TNF-α 0.3 ng/ml
Experimental: Using a culture broth containing serum for vascular endothelial cell (manufactured by Nissui Pharmaceutical Co., Ltd.) as a culture medium, HUVEC (umbilical vein endothelial cell manufactured by Morinaga Bioscience Institute) was cultured in a collagen-treated flask by the routine method.
For carrying out a test about the suppression of ICAM-1 expression with HUVEC, a collagen-treated 96-well plate was used, where HUVEC was added at 1 to 2×10^4 cells/well while the culture medium was added at 100 to 200 μl/well. The cell was cultured in 5% CO2 at 37° C. for 48 to 72 hours. Before adding a test solution, the culture medium (80 μl) was exchanged, to which 10 μl of a test solution preliminarily diluted was then added. The plate was allowed to stand alone in a CO2 incubator. 2 hours later, 10 μl of TNF-α (recombinant human TNF-α, manufactured by Genzyme) was added (to a final concentration of 0.3 ng/ml). The resulting plate was again allowed to stand alone in the CO2 incubator. 16 to 22 hours later, the cell was fixed with 1% p-formaldehyde solution. The cell was rinsed with a phosphate buffer containing Ca^2+ and Mg^2+, which was then treated with an anti-human ICAM-1 antibody (mouse IgG1, manufactured by Kyowa Medics) at ambient temperature for 30 minutes. After the cell was rinsed again with the phosphate buffer, the cell was treated with a peroxide-labeled anti-mouse IgG (H+L) (manufactured by Organon Teknik Corp.) for another 30 minutes. After the cell was again rinsed with the phosphate buffer, the color developed was measured, using a peroxidase chromogenic kit (manufactured by Sumitomo Bakelite Co., Ltd.), to determine ICAM-1 expressed on HUVEC as an expression-inhibiting ratio (%) to a non-drug group to calculate the IC50 value.

[2] = Solubility in solvents; type: physicochemical; conditions: methanol, chloroform, acetone, water, hexane
[3] = tested on: footpad thickness, MeHSA-sensitized C57BL/6 mouse; assay: Methylated human serum albumin-induced delayed hypersensitivity test (MeHSA-DTH); type: in vivo; conditions: oral, twice, footpad thickness 24 hours after induction
Experimental: Methylated human serum albumin (MeHSA) was dissolved in physiological saline to 5 mg/ml, which was then mixed with an equal volume of the complete Freund's adjuvant (manufactured by Iatron), to prepare an emulsion. Next, 100 μl of the prepared emulsion was injected subcutaneously into a 8-week-old male C57BL/6 mouse, for antigen sensitization. Seven days thereafter, MeHSA was dissolved in physiological saline to 1 mg/ml, which was injected at 25 μl subcutaneously into the footpad of the right hind limb, to trigger a reaction. The thickness of the footpad was measured 24 hours after the induction of the reaction, to calculate the difference from the thickness thereof before the induction of the reaction, to make an assessment. Additionally, drugs were orally given twice, namely one hour before the induction of the reaction and 16 hours after the induction thereof.

[4] = tested on: collagen-induced arthritis, DBA/1J mouse; assay: Test using collagen arthritis model in mouse; type: in vivo; conditions: 30 mg/kg, oral daily after secondary sensitization, two weeks after secondary sensitization, non-drug group 5.7
Experimental: Type II collagen derived from bovine joint was dissolved in 0.1 M acetate saline to 2 mg/ml, with which an equal volume of the complete Freund's adjuvant (manufactured by Iatron) was mixed, to prepare an emulsion. For primary sensitization, the emulsion was injected intracutaneously into the tail root of a 8-week-old male DBA/1J mouse. Twenty-one days thereafter, 0.1 ml of an emulsion prepared in the same manner was intracutaneously injected into the dorsal part of the mouse, for secondary sensitization, to trigger the onset of arthritis. Two weeks after the secondary sensitization, the symptoms of arthritis were visually observed (0: normal; 1: swelling and reddening of finger tips; 2: mild swelling and reddening of parts distal from joints of hands and foots; 3: severe swelling and reddening of parts distal from joints of hands and foots). The symptoms of arthritis were observed individually over the four limbs. The total was defined as the arthritis score of an individual. Further, a test drugs was suspended in 0.5% methyl cellulose and orally given daily after the secondary sensitization.

[5] = tested on: AsPC-1 (human pancreas cancer cell); assay: Test about the suppression of cell growth (MTT); type: cell-based; conditions: ASPC1, 72 h, AsPC-1, 3 days
Experimental: (§1) Various cancer cells and normal cell as cultured in a culture broth to 70 to 90% confluency were used. After the culture broth was removed, 0.25% trypsin/1 mM-EDTA solution was added to scrape off the cells and count the cells. Then, a cell suspension of 5×10^4 cells/ml was prepared. The suspension was divided at 90 μl/well into a 96-well plate, and allowed to stand alone in a CO2 incubator. On the next day, (a 0 to 10 μM test drug (the compound of Example 5) was added at 10 μl/well, for gentle shaking for sufficiently mixing the test drug with the liquid culture. After culturing for 3 days, each 10-μl portion of aqueous 5 mg/ml MTT (3-(4,5-dimethylthiazol-2-yl)-2,5-diphenyltetrazolium bromide) solution was added. After culturing in the CO2 incubator for another 4 hours, 100 μl of a 2-propanol solution containing 0.04N hydrochloric acid was added to each well, for terminating the reaction. The generated MTT formazan was sufficiently dissolved with a multi-channel pipette, to measure the absorbance at 595 nm, using a control wavelength of 655 nm. The measured absorbance was analyzed by non-linear regression analysis using a model formula by the MTT method, to calculate the concentration at which the cell growth was inhibited by 50% (IC50). The cells used at this test and the culture broths therefor are as shown below. • 1) Cell: A549 (human lung cancer cell, Human Science Foundation) • Culture broth: DMEM (Dulbecco's modified Eagle medium)+10% FBS (fetal bovine serum) • 2) Cell: PC-3 (human prostate cancer cell, ATCC) • Culture broth: DMEM+10% FBS • 3) Cell: AsPC-1 (human pancreas cancer cell, Tokyo University) • Culture broth: DMEM+10% FBS • 4) Cell: HT-1080 (human fibrosarcoma cell, ATCC) • Culture broth: DMEM+10% FBS • 5) Cell: Hepatocyte (normal human liver cell, ACRBI) • Culture broth: CS-C (Cell Systems) • 6) Cell: NHDF (normal human fibroblast cell, Kurabo) • Culture broth: DMEM+10% FBS • 7) Cell: BAE (normal bovine aorta vascular endothelial cell, ACRBI) • Culture broth: CS-C (Cell systems)

[6] = tested on: A549 (human lung cancer cell); assay: Test about the suppression of cell growth (MTT); type: cell-based; conditions: 72 h, A549, 3 days
Experimental: as §1

[7] = tested on: PC-3 (human prostate cancer cell); assay: Test about the suppression of cell growth (MTT); type: cell-based; conditions: 72 h, PC-3, 3 days
Experimental: as §1

[8] = tested on: BAE (normal bovine aorta vascular endothelial cell); assay: Test about the suppression of cell growth (MTT); type: cell-based; conditions: Bos taurus, 72 h, 3 days
Experimental: as §1

[9] = tested on: NHDF (normal human fibroblast cell); assay: Test about the suppression of cell growth (MTT); type: cell-based; conditions: 72 h, 3 days
Experimental: as §1

[10] = tested on: Hepatocyte (normal human liver cell); assay: Test about the suppression of cell growth (MTT); type: cell-based; conditions: 72 h, 3 days
Experimental: as §1

[11] = tested on: HT-1080 (human fibrosarcoma cell); assay: Test about the suppression of cell growth (MTT); type: cell-based; conditions: 72 h, HT-1080, 3 days
Experimental: as §1

| Compound | IC50 [1] | Solubility [2] | Suppression ratio (%) ([3]; 10 mg/kg) | Suppression ratio (%) ([3]; 30 mg/kg) | Arthritis score [4] | IC50 [5] | IC50 [6] | IC50 [7] | IC50 [8] | IC50 [9] | IC50 [10] | IC50 [11] |
| --- | --- | --- | --- | --- | --- | --- | --- | --- | --- | --- | --- | --- |
| C/C(=C\C=C\[C@@H]1[C@H]2[C@H](C)[C@@H](O)[C@H](C)C[C@@H]2C=C[C@@H]1C)C(=O)O [Example 1, (2E,4E)-5-[(1S,2S,4aR,6R,7S,8S,8aS)-7-hydroxy-2,6,8-trimethyl-1,2,4a,5,6,7,8,8a-octahydronaphthalen-1-yl]-2-methylpenta-2,4-dienoic acid] | 59000 nM | soluble in methanol, chloroform and acetone but insoluble in water and hexane |  |  |  |  |  |  |  |  |  |  |
| C/C(=C\C=C\[C@@H]1[C@H]2[C@H](C)[C@@H](O)[C@H](C)C[C@@H]2C=C[C@@H]1C)C(=O)NCc1cccnc1 [Example 5, N-(Pyridin-3-ylmethyl)-(2E,4E)-5-[(1S,2S,4aR,6R,7S,8S,8aS)-7-hydroxy-2,6,8-trimethyl-1,2,4a,5,6,7,8,8a-octahydronaphthalen-1-yl]-2-methylpenta-2,4-dienamide] | 170 nM |  | 27.5* % | 51.5** % | 2.1* | 113 nM | 85 nM | 67 nM | 9400 nM | 600 nM | 430 nM | 70 nM |
